From patent publication US20150196568A1, “SYSTEM FOR USE BY COMPOUNDING PHARMACISTS TO PRODUCE HORMONE REPLACEMENT MEDICINE CUSTOMIZED FOR EACH CUSTOMER” (priority 2003, published 2015) come the findings set out here.

The nature of the series: ability of solvent combination to dissolve hormones. Type of series: physicochemical. The conditions noted are these: combination of ethoxy diglycol and propylene glycol in any ratio, compared with either solvent alone.

Turning to `C[C@]12CC[C@H]3[C@@H](CCC4=CC(=O)CC[C@@]43C)[C@@H]1CC[C@@H]2O` [testosterone], the ability to dissolve entry is recorded as “better than using any of the solvents alone”.
